Key:
[1] = Solubility in hydrocarbon solvents at 20° C.; assay type: physicochemical
Description: Solubility in hydrocarbon solvents was examined for the compounds II-1 and II-2 of the present invention and for the compounds AO-1 and AO-2 which are structurally similar to the compounds of the present invention. The hydrocarbon solvents used were n-hexane and cyclohexane. (g/100 g solvent)

[2] = U.S. Pat. No. 4,525,514; cited from earlier work

Structure (SMILES)	Solubility in Cyclohexane [1]	Solubility in n-Hexane [1]	effect as a stabilizer for butadiene polymers (in words) [2]
C=CC(=O)Oc1c(Cc2cc(C)cc(C(C)(C)C)c2O)cc(C)cc1C(C)(C)C [AO-1, 2-t-Butyl-6-(3-t-butyl-2-hydroxy-5-methylbenzyl)-4-methylphenyl acrylate]	4.0 g/100 g solvent	1.5 g/100 g solvent	effective as a stabilizer for butadiene polymers
C=CC(=O)Oc1c(C(C)c2cc(C(C)(C)C)cc(C(C)(C)C)c2O)cc(C(C)(C)C)cc1C(C)(C)C (stereo not drawn) [AO-2, 2,4-Di-t-butyl-6-[1-(3,5-di-t-butyl-2-hydroxyphenyl)ethyl]phenyl acrylate]	2.4 g/100 g solvent	1.1 g/100 g solvent	–
C=CC(=O)Oc1c(C(C)c2cc(C(C)(C)CC)cc(C(C)(C)CC)c2O)cc(C(C)(C)CC)cc1C(C)(C)CC (stereo not drawn) [II-1, 2,4-di-t-amyl-6-[1-(3,5-di-t-amyl-2-hydroxyphenyl)ethyl]phenyl acrylate]	89 g/100 g solvent	55 g/100 g solvent	–
C=C(C)C(=O)Oc1c(C(C)c2cc(C(C)(C)CC)cc(C(C)(C)CC)c2O)cc(C(C)(C)CC)cc1C(C)(C)CC (stereo not drawn) [II-2, 2,4-di-t-amyl-6-[1--(3,5-di-t-amyl-2-hydroxyphenyl)ethyl]phenyl methacrylate]	108 g/100 g solvent	65 g/100 g solvent	–
